Values after ≈ are worked out from the molar mass of the structure shown.
Key:
[1] = test system: mouse Leukemia P388; experiment: Inhibition of proliferation of mouse leukemia P388 cells; type: cell-based; conditions: 48 h; mouse leukemia P388, 37° C, 2 days
Method: (§1) A cell suspension containing cells of mouse Leukemia L1210, mouse Leukemia P388, mouse Leukemia EL4, mouse IMC carcinoma or human lung cancer LX-1 cells in a culture medium containing 10% calf serum at a cell density of 1 x 10^5 cells/ml was prepared, and 200 μl-portion of the cell suspension so prepared was placed in a microplate and then added with a solution of MI43-37F11 substance at varying concentrations (dissolved in a mixture of water and dimethylsulfoxide (95:5)). The cell suspension containing the test compound added was subsequently incubated at 37° C for 2 days (but 5 days for the LX-1 cells).
(§2) After the incubation, the number of the cells of the L1210 cells, P388 cells, the EL4 cells and the IMC carcinoma cells in the treated groups was counted by means of Coulter-counter. The control group (untreated) of the cell suspension to which the test compound was not added was incubated in the same way as above and then the number of the cells was similarly counted.
(§3) Rate (%) of inhibition of the cell proliferation of the treated group against that of the control group (untreated) was evaluated. […]

[2] = test system: mouse Leukemia EL4; experiment: Inhibition of proliferation of mouse leukemia EL4 cells; type: cell-based; conditions: 48 h; mouse leukemia EL4, 37° C, 2 days
Method: as §1, §2, §3

[3] = test system: mouse IMC carcinoma; experiment: Inhibition of proliferation of mouse IMC carcinoma cells; type: cell-based; conditions: 48 h, 37° C, 2 days
Method: as §1, §2, §3

[4] = test system: human lung cancer LX-1; experiment: Inhibition of proliferation of human lung cancer LX-1 cells (MTT); type: cell-based; conditions: 120 h, human lung cancer LX-1, 37° C, 5 days
Method: as §1, with “cells). […]” for “cells).”

[5] = test system: Ehrlich carcinoma; experiment: Therapeutic treatment of Ehrlich carcinoma-bearing mice by intraperitoneal injection; type: in vivo, ICR mice
Method: (a) Experiments for therapeutic treatment of Ehrlich carcinoma-bearing mice were conducted by intraperitoneal injection of the antibiotic MI43-37F11 substance. Thus, a cell suspension of Ehrlich ascites carcinoma cells was subcutaneously inoculated at the abdominal region of ICR mice (female, 6-week old, 4 mice in each treated group) so that the number of the carcinoma cells as subcutaneously transplanted was 2×10^6 cells per mouse. After the transplantation of the carcinoma cells, the antibiotic MI43-37F11 substance was administered by intraperitoneal injection to the mice having the transplanted and firmly grown carcinoma cells, according to the following schedule of administration. Namely, MI43-37F11 substance was administered at a dosage of 10 mg/kg or 2.5 mg/kg or 0.625 mg/kg only once on the 7th day after the transplantation of the cells, or alternatively MI43-37F11 substance was administered at a dosage of 2.5 mg/kg or 1.25 mg/kg or 0.625 mg/kg, totally five times but every other day from the 7th day to the 14th day after the transplantation of the carcinoma cells. The administration of MI43-37F11 substance was not made but intraperitoneal injection of physiological saline was made in the mice of the control group (untreated) (8 mice in each control group).
(§4) On the 15th day after the transplantation of the carcinoma cells, the mass of the tumor (carcinoma) was surgically removed out of each mouse and weighed. The rate of the reduction in the weight of the tumor (carcinoma) obtained from the group of mice treated with MI43-37F11 substance was evaluated in term of the rate (%) of inhibition, with such an assumption that the weight of the tumor obtained from the control group of mice was amounting to 100. In other words, the rate (%) of inhibition to the growth of Ehrlich carcinoma was calculated according to the following equation [formula] where C means the weight of the tumor in the control group of mice (untreated) and T means the weight of the tumor of the treated group of mice.

[6] = test system: Ehrlich carcinoma; experiment: Therapeutic treatment of Ehrlich carcinoma-bearing mice by oral administration; type: in vivo, ICR mice; conditions: days 1-9, 14th day; for Weight of tumor (mg ± S.D.): control 1,084 ± 256
Method: as §4
(b) Another experiments for therapeutic treatment of Ehrlich carcinoma-bearing mice were conducted by oral administration of MI43-37F11 substance. Thus, the cell suspension of Ehrlich ascites carcinoma cells was subcutaneously inoculated at the abdominal region of ICR mice (female, 6-week old, 5 mice in each treated group) so that the number of the carcinoma cells as subcutaneously implanted was 2×10^6 cells per mouse. The MI43-37F11 substance was orally administered to the mice of the treated group at a dosage of 6.3 mg/kg, 12.5 mg/kg, 25 mg/kg, […] or 100 mg/kg once a day during the consecutive 9 days from the 1st day to the 9th day after the implantation of the carcinoma cells. On the 14th day after the implantation of the carcinoma cells, the mass of the tumor (carcinoma) was surgically removed out of each mouse and weighed. The weight of the tumor obtained from the treated group of mice was compared with the weight of the tumor obtained from the control group of mice (untreated), by calculating the rate (%) of inhibition according to the same equation as above.

[7] = Solubility; type: physicochemical
[8] = test system: Ehrlich carcinoma; experiment: Activity against Ehrlich carcinoma (general statement); type: in vivo; conditions: general statement in words
Method: (a) Experiments for therapeutic treatment of Ehrlich carcinoma-bearing mice were conducted by intraperitoneal injection of the antibiotic MI43-37F11 substance. Thus, a cell suspension of Ehrlich ascites carcinoma cells was subcutaneously inoculated at the abdominal region of ICR mice (female, 6-week old, 4 mice in each treated group) so that the number of the carcinoma cells as subcutaneously transplanted was 2×10^6 cells per mouse. After the transplantation of the carcinoma cells, the antibiotic MI43-37F11 substance was administered by intraperitoneal injection to the mice having the transplanted and firmly grown carcinoma cells, according to the following schedule of administration. […]
On the 15th day after the transplantation of the carcinoma cells, the mass of the tumor (carcinoma) was surgically removed out of each mouse and weighed. The rate of the reduction in the weight of the tumor (carcinoma) obtained from the group of mice treated with MI43-37F11 substance was evaluated in term of the rate (%) of inhibition, with such an assumption that the weight of the tumor obtained from the control group of mice was amounting to 100. […]

`COc1cc(O)c2c(=O)oc(CO)cc2c1` [MI43-37F11 substance] showed an IC50 [1] of 50 µg/mL (≈ 225 µM), an IC50 [2] of 52 µg/mL (≈ 234 µM) and an IC50 [3] of 72 µg/mL (≈ 324 µM). The IC50 [4] was 100 µg/mL (≈ 450 µM), the “Rate (%) of Inhibition” value ([5]; 0.625 mg/kg i.p., 7th day (only once), tumor weight on 15th day) was 12% and the “Rate (%) of Inhibition” value ([5]; 0.625 mg/kg/day i.p., 7th day to 14th day, every second day, totally 5 times) was 30%. The “Rate (%) of Inhibition” value ([5]; 1.25 mg/kg/day i.p., 7th day to 14th day, every second day, totally 5 times) was 67%, the “Rate (%) of Inhibition” value ([5]; 2.5 mg/kg i.p., 7th day (only once), tumor weight on 15th day) was 51% and the “Rate (%) of Inhibition” value ([5]; 2.5 mg/kg/day i.p., 7th day to 14th day, every second day, totally 5 times) was 60%. The “Rate (%) of Inhibition” value ([5]; 10 mg/kg i.p., 7th day (only once), tumor weight on 15th day) was 59%, the “Rate (%) of Inhibition” value ([6]; 6.3 mg/kg/day oral) was 45% and the “Weight of tumor (mg ± S.D.)” value ([6]; 6.3 mg/kg/day oral, *P < 0.05) was 586 ± 282 mg. The “Rate (%) of Inhibition” value ([6]; 12.5 mg/kg/day oral) was 63%, the “Weight of tumor (mg ± S.D.)” value ([6]; 12.5 mg/kg/day oral, **P < 0.01) was 391 ± 266 mg and the “Rate (%) of Inhibition” value ([6]; 25.0 mg/kg/day oral) was 74%. For the same molecule, the “Weight of tumor (mg ± S.D.)” value ([6]; 25.0 mg/kg/day oral, ***P < 0.001) was 280 ± 152 mg, the “Rate (%) of Inhibition” value ([6]; 50.0 mg/kg/day oral) was 55% and the “Weight of tumor (mg ± S.D.)” value ([6]; 50.0 mg/kg/day oral, **P < 0.01) was 485 ± 123 mg. The “Rate (%) of Inhibition” value ([6]; 100.0 mg/kg/day oral) was 47%, the “Weight of tumor (mg ± S.D.)” value ([6]; 100.0 mg/kg/day oral, **P < 0.01) was 566 ± 421 mg and the Solubility ([7]; in acetonitrile) was “easily soluble”. For the same molecule, the Solubility ([7]; in chloroform) was “soluble”, the Solubility ([7]; in hexane) was “hardly soluble” and the Solubility ([7]; in methanol) was “soluble”. The Solubility ([7]; in water) was “hardly soluble” and the “activity against Ehrlich carcinoma” value [8] was “high activity”.

Reference: US5096924A, “Anticancer antibiotic MI43-37F11 substance” (501 Azidan Hojin Biseibutsu Kagaku Kenkyu Kai, priority 1989, dated 1992)
